Measurements taken from US6153768A, “Benzopyran derivatives” (C & C Research Laboratories, priority 1996, dated 2000).

Key:
estrogen receptor = details: literature, in words; cited from earlier work
MCF-7 cells = test: Cell growth inhibiting activity (MTT, 0.1 nM estradiol, 7 days); assay type: cell-based; details: Homo sapiens, MCF7, 168 h, MCF-7, 0.1 nM estradiol
Protocol: In this experiment, the cell growth inhibiting activity was determined by using the compounds of Examples 6, 7, 12 and 46 as the test compound and the known anti-estrogenic compound ZM189154 having the following structure (see, EP0124369 B1) as the control compound, according to the method described hereinafter. [drawing 72]
One day before drug administration, incubated MCF-7 cells were plated in 96-well plate in the concentration of 5×10^3 cells per well. After the 96-well plate was incubated for one day, 0.1 nM of estradiol and the test compound in the given concentration were added to each well. The plate was incubated for 7 days at 37° C. and then MTT solution (Sigma) was added to each well in the amount of 15 μl and allowed to react for 2 hours at 37° C. After the reaction is completed, the solubilizing/stopping solution (constitution: SDS, acetic acid, N,N-dimethylformamide) was added to each well in the amount of 100 μl. Then, the absorption for each well at 570 nm was measured by means of a plate reader. IC50 value for inhibiting cell growth of 50% was calculated from the results as measured and described in the following Table 1.

[1] = tested on: increase of uterine weight by estradiol in ovariectomized mice; test: Anti-estrogenic activity, inhibition of uterine weight increase, subcutaneous administration; assay type: in vivo, mice (ICR); details: s.c.; for Inhibition (%) of increase of uterine weight: 30 μg/mouse, 3 days; for inhibition of increase of uterine weight compared to ZM189154: in words
Protocol: Anti-estrogenic activity of the test compound by subcutaneous administration was determined according to the method described hereinafter. In this experiment, the compounds of Examples 6, 7, 12 and 46 were used as the test compound and the known anti-estrogenic compound ZM189154 was used as the control compound as in Experiment 1.
In this experiment, the test compound or the control compound was dissolved in peanut oil (Sigma) and injected subcutaneously for 3 days, once a day. After 24 hours from the last injection, the test animal was sacrificed and uterus was removed and weighed.

[2] = tested on: increase of uterine weight by estradiol in ovariectomized mice; test: Anti-estrogenic activity, inhibition of uterine weight increase, oral administration; assay type: in vivo, mice (ICR); details: 10 mg/kg, p.o., 3 days
Protocol: Oral anti-estrogenic activity of the test compound was determined according to the method described hereinafter. In this experiment, the compound of Example 7 was used as the test compound and the known anti-estrogenic compound ZM189154 was used as the control compound as in Experiment 2.
In this experiment, the test compound or the control compound was suspended in 5% arabic gum solution and orally administered for 3 days, once a day. After 24 hours from the last administration, the test animal was sacrificed and uterus was removed and weighed.

mouse femur = test: Effect on bone mineral density of mouse femur; assay type: in vivo, BALB/c nude mouse (female); details: for whole BMD / proximal BMD / distal BMD: mean ± SE, s.c. once a week, 6 weeks; for whole BMD: control 35.63 ± 0.97; for proximal BMD: control 35.95 ± 1.50; for distal BMD: control 37.80 ± 1.75
Protocol: The effect of the compound of the present invention on bone mineral density of mouse femur was determined according to the method described hereinafter. In this experiment, the compounds of Example 7 was used as the test compound and the known anti-estrogenic compound ZM189154 was used as the control compound as in Experiment 2.
MCF-7 cells (ATCC) as human breast cancer cell were transplanted subcutaneously into BALB/c nude mouse (female, 6 weeks) and then estradiol was percutaneously injected twice a week in an amount of 0.01 mg/mouse, for 3 weeks. Thereafter, estradiol was administered once a week in the same amount and the test compound or the control compound dissolved in 10% ethanol-90% peanut oil was administered. The control group received only vehicle. The test or control compound was administered subcutaneously in an amount of […], once a week. After the administration of the test compound for 6 weeks, left femur was excised and soft tissue was removed therefrom. Then the bone mineral density (BMD) was measured in a SPA mode by means of dual energy X-ray absorptiometry DCS-600 (Aloka). For interpretation, femur was divided into ten in the direction of long axis and the mean […] of 3, 4 and 3 fragments from proximal position were calculated. Each of the fragments was represented as proximal, middle or distal, respectively.

Row | Structure (SMILES) | IC50 (MCF-7 cells) [nM] | Inhibition (%) of increase of uterine weight [1] [%] | inhibition of increase of uterine weight compared to ZM189154 [1] | also measured
1 | C[C@]12CC[C@@H]3c4ccc(O)cc4C[C@@H](CCCCCCCCC[S+]([O-])CCCC(F)(F)C(F)(F)F)[C@H]3[C@@H]1CC[C@@H]2O (stereo partly shown) |  |  |  | estrogenic activity (agonistic effect) (estrogen receptor): without agonistic effect
2 | CC/C(=C(\c1ccccc1)c1ccc(OCCN(C)C)cc1)c1ccccc1 [Tamoxifen] |  |  |  | estrogenic activity (agonistic effect) (estrogen receptor): exhibits estrogenic activity in some organs
3 | C[C@@]1(c2ccc(O)cc2)COc2cc(O)ccc2[C@@H]1CCCCCCCCC[S+]([O-])CCN1CCCCC1 (mixture of isomers) [Example 46, (3RS,4RS)-7-hydroxy-3-(4-hydroxyphenyl)-3-methyl-4-[9-((2-piperidinoethyl)sulfinyl)nonyl]-2,3-dihydro-4H-benzopyran] | 33 | 16.7 | rather superior to that of ZM189154 | 
4 | CCCCN(C)C(=O)CCCCCCCCCC[C@@H]1Cc2cc(O)ccc2[C@H]2CC[C@]3(C)[C@@H](O)CC[C@H]3[C@H]12 [7 α--(CH2)10 CONMeBu derivative] |  |  |  | anti-estrogenic activity (estrogen receptor): exhibit anti-estrogenic activity
5 | C[C@@]1(c2ccc(O)cc2)COc2cc(O)ccc2[C@@H]1CCCCCCCCC[S+]([O-])CCCC(F)(F)C(F)(F)F (mixture of isomers) [Example 7, (3RS,4RS)-7-hydroxy-3-(4-hydroxyphenyl)-3-methyl-4-[9-(4,4,5,5,5-pentafluoropentylsulfinyl)nonyl]-2,3-dihydro-4H-benzopyran] | 54.8 | 87.0 | rather superior to that of ZM189154 | Inhibition (%) of increase of uterine weight [2]: 68.1%; whole BMD (mouse femur): 37.23 ± 1.41 mg/cm^2; proximal BMD (mouse femur): 35.05 ± 2.05 mg/cm^2; distal BMD (mouse femur): 36.29 ± 1.46 mg/cm^2
6 | C[C@@]1(c2ccc(O)cc2)COc2cc(O)ccc2[C@@H]1CCCCCCCCCSCCCC(F)(F)C(F)(F)F (racemic) [Example 6, (3RS,4RS)-7-hydroxy-3-(4-hydroxyphenyl)-3-methyl-4-[9-(4,4,5,5,5-pentafluoropentylthio)nonyl]-2,3-dihydro-4H-benzopyran] | 277 | 83.1 | rather superior to that of ZM189154 | 

Continued, in another order:

Row | IC50 (MCF-7 cells) [nM] | Structure (SMILES) | Inhibition (%) of increase of uterine weight [1] [%] | inhibition of increase of uterine weight compared to ZM189154 [1] | also measured
7 | 524 | C[C@@]1(c2ccc(O)cc2)COc2cc(O)ccc2[C@@H]1CCCCCCCCSCCCC(F)(F)C(F)(F)F (racemic) [Example 12, (3RS,4RS)-7-hydroxy-3-(4-hydroxyphenyl)-3-methyl-4-[8-(4,4,5,5,5-pentafluoropentylthio)octyl]-2,3-dihydro-4H-benzopyran] | 74.8 | rather superior to that of ZM189154 | 
8 | 77 | CC1(c2ccc(O)cc2)CCc2cc(O)ccc2C1CCCCCCCCC[S+]([O-])CCCC(F)(F)C(F)(F)F (stereo not shown) [ZM189154] | 73.8 |  | Inhibition (%) of increase of uterine weight [2]: 41.7%; whole BMD (mouse femur): 34.57 ± 1.40 mg/cm^2; proximal BMD (mouse femur): 34.19 ± 2.19 mg/cm^2; distal BMD (mouse femur): 32.80 ± 1.30 mg/cm^2; decrease of BMD at distal femur (mouse femur; vs control): 13.3%; decrease of BMD at proximal femur (mouse femur; vs control): 4.9%; decrease of BMD at whole femur (mouse femur; vs control): 3.0%
